Data reported in US5559113A, “Imidazole compounds and their therapeutic applications” (Institut National de la Sante et de la Recherche Medicale, priority 1992, dated 1996).

target: T1, H3 receptors of the brain of the rat (Rattus norvegicus, UniProt Q9QYN8); experiment: Antagonism of the inhibition by exogenous histamine of release in rat cerebral cortex sections (central H3 receptors); format: cell-based; details: not given
T1 construct: This method requires rat cerebral cortex sections; from tissue; host or cells: rat cerebral cortex sections
T1 sequence (Q9QYN8 whole entry): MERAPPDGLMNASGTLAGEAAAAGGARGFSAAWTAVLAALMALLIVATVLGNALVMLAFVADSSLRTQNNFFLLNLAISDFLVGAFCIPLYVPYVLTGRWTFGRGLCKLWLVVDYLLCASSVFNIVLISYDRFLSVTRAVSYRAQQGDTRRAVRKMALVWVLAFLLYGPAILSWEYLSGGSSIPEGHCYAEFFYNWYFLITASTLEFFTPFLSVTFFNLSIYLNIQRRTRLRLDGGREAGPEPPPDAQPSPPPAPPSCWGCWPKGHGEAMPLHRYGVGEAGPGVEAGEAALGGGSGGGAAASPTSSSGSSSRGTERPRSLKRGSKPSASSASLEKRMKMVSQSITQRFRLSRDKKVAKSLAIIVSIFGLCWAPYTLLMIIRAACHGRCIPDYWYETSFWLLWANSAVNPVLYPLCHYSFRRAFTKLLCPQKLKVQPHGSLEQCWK
Text: This method requires rat cerebral cortex sections and has made possible the pharmacological characterization of the H3 receptors (Nature, 1987, 327, 117-123).

| SMILES | Ki |
| --- | --- |
| Fc1ccc(CCCOCCCc2c[nH]cn2)cc1 [Example 88, 3-(4-Fluorophenyl)propyl 3-(1H-imidazol-4-yl)propyl ether] | 0.007 ± 0.002 µM |
| O=C(CCC1CCCC1)OCCCc1c[nH]cn1 [Example 24, 3-(1H-Imidazol-4-yl)propyl ester of 3-cyclopentylpropanoic acid] | 0.003 µM |
| O=C(CCC1CCCC1)NC/C=C/c1c[nH]cn1 [Example 19, (E)-N-(3-(1H-Imidazol-4-yl)allyl)-3-cyclopentylpropanamide] | 0.042 µM |
| Brc1ccc(CCCOCCCc2c[nH]cn2)cc1 [Example 38, 3-(4-Bromophenyl)propyl 3-(1H-imidazol-4-yl)propyl ether] | 0.015 ± 0.004 µM |
| Clc1ccc(CCCOCCCc2c[nH]cn2)cc1 [Example 85, 3-(4-Chlorophenyl)propyl 3-(1H-imidazol-4-yl)propyl ether] | 0.013 ± 0.004 µM |
| O=C(CCCC1CCCCC1)NCCCc1c[nH]cn1 [Example 7, N-(3-(1H-Imidazol-4-yl)propyl)-4-cyclohexylbutanamide] | 0.059 µM |
| S=C(CCC1CCCC1)NCCCc1c[nH]cn1 [Example 22, N-(3-(1H-Imidazol-4-yl)propyl)-3-cyclopentylpropanethioamide] | 0.011 µM |
| O=C(CCc1ccccc1)NCCCc1c[nH]cn1 [Example 2, N-(3-(1H-Imidazol-4-yl)propyl)-3-phenylpropanamide] | 0.049 µM |
| CC(CC(=O)NCCCc1c[nH]cn1)c1ccccc1 (racemic) [Example 15, (R,S)-(+)-N-(3-(1H-Imidazol-4-yl)propyl)-3-phenylbutanamide] | 0.035 µM |
| c1ccc(CCCOCCCc2c[nH]cn2)cc1 [Example 45, 3-Phenylpropyl 3-(1H-imidazol-4-yl)propyl ether] | 0.017 ± 0.003 µM |
| O=C(CCCc1ccccc1)CCCc1c[nH]cn1 [Example 49, 1-(1H-Imidazol-4-yl)-7-phenylheptan-4-one] | 0.02 µM |

The remaining lines, values ahead:

| Ki | SMILES |
| --- | --- |
| 0.038 µM | O=[N+]([O-])c1ccc(NCCc2c[nH]cn2)nc1 [Example 94, 2-{[2-(1H-Imidazol-4-yl)ethyl]amino}-5-nitropyridine] |
| 0.018 µM | Clc1ccc(COCCCc2c[nH]cn2)cc1 [Example 86, (4-Chlorophenyl)methyl 3-(1H-imidazol-4-yl)propyl ether] |
| 0.02 µM | N#CN=C(NCCCc1cnc[nH]1)NCC1CCCCC1 [Example 51, N-Cyano-N'-[3-(1H-imidazol-4-yl)propyl]-N"-cyclohexylmethylguanidine] |
| 0.38 µM | c1ccc2sc(NCCc3c[nH]cn3)nc2c1 [Example 91, 2-{[2-(1H-Imidazol-4-yl)ethyl]amino}benzothiazole] |

same assay, conditions: read-out: Apparent dissociation constant (Ki) as antagonist of histamine on the H3 receptors of the brain of the rat; rat cerebral cortex sections; exogenous histamine 1 μM; Ki calculated from IC50 according to Cheng and Prusoff

| SMILES | Ki |
| --- | --- |
| O=C(NC(=O)c1ccccc1)OCCCc1c[nH]cn1 [Example 55, 3-(1H-Imidazol-4-yl)propyl N-benzoylcarbamate] | 0.095 µM |
| CN(Cc1ccccc1)C(=O)OCCCc1c[nH]cn1 [Example 83, 3-(1H-Imidazol-4-yl)propyl N-benzyl-N-methylcarbamate] | 0.042 µM |
| O=C(Nc1ccccc1)OCCCc1c[nH]cn1 [Example 61, 3-(1H-Imidazol-4-yl)propyl N-phenylcarbamate] | 0.014 ± 0.008 µM |
| O=C(Nc1ccc(F)cc1)OCCCc1c[nH]cn1 [Example 73, 3-(1H-Imidazol-4-yl)propyl N-(4-fluorophenyl)carbamate] | 0.024 ± 0.004 µM |

Other lines, results leading:

| Ki | SMILES |
| --- | --- |
| 0.035 ± 0.006 µM | O=[N+]([O-])c1ccc(OCCc2c[nH]cn2)cc1 [Example 110, 4-[2-(4-Nitrophenoxy)ethyl]-1H-imidazole] |
| 0.019 ± 0.009 µM | CCCc1ccc(OCCc2c[nH]cn2)cc1 [Example 117, 4-[2-(4-Propylphenoxy)ethyl]-1H-imidazole] |
| 0.012 ± 0.003 µM | N#Cc1ccc(OCCCc2c[nH]cn2)cc1 [Example 130, 4-[3-(4-Cyanophenoxy)propyl]-1H-imidazole] |
| 0.015 µM | O=C(NCc1ccc([N+](=O)[O-])cc1)OCCCc1c[nH]cn1 [Example 67, 3-(1H-Imidazol-4-yl)propyl N-(4-nitrobenzyl)carbamate] |
| 0.014 ± 0.006 µM | FC(F)(F)c1ccc(OCCCc2c[nH]cn2)cc1 [Example 131, 4-[3-(4-Trifluoromethylphenoxy)propyl]-1H-imidazole] |
| 0.02 ± 0.008 µM | c1nc(CCCOCCCC2CCCCC2)c[nH]1 [Example 36, 3-Cyclohexylpropyl 3-(1H-imidazol-4-yl)propyl ether] |
| 0.09 ± 0.027 µM | c1ccc2cc(OCCc3c[nH]cn3)ccc2c1 [Example 125, 4-[2-(2-Naphthyloxy)ethyl]-1H-imidazole] |
| 0.0048 ± 0.0009 µM | O=[N+]([O-])c1ccc(SCCc2c[nH]cn2)nc1 [Example 107, 2-{2-[1H-Imidazol-4-yl]ethylthio}-5-nitropyridine] |
| 0.052 µM | O=C(NCC1CC1)OCCCc1c[nH]cn1 [Example 57, 3-(1H-Imidazol-4-yl)propyl N-(cyclopropylmethyl)carbamate] |
| 0.009 ± 0.005 µM | N#Cc1ccc(OCCc2c[nH]cn2)cc1 [Example 112, 4-[2-(4-Cyanophenoxy)ethyl]-1H-imidazole] |

same assay, conditions: read-out: Inhibition of release by exogenous histamine

| SMILES | inhibition at 1 µM |
| --- | --- |
| NCCc1c[nH]cn1 [histamine, reference compound] | ~50% |
